Data from publication PMC7481357, “N-terminal Myristoylation Enhanced the Antimicrobial Activity of Antimicrobial Peptide PMAP-36PW” (Frontiers in Cellular and Infection Microbiology, 2020).
Residues, ends and D or L forms follow the SMILES beside them. *: point of attachment. Myristoyl = CCCCCCCCCCCCCC(=O)*

Key:
[1] = system: S. aureus ATCC 25923; assay: Subcutaneous abscess model; format: in vivo, BALB/c mice; settings: injected 20 μL, 1 μg/μL, once a day for 3 days; for Bacterial CFU in abscess area: n = 5
Description: A subcutaneous abscess model in vivo was established as previously reported (Zhao et al., [2019]). The mouse dorsal region with 3.0 cm diameter was treated with hair pusher. A total of 120 mice were randomly divided into two experimental models, one was challenged with S. aureus ATCC 25923 (2.5 × 10^8 CFU/mL, 60 μL), and the other was challenged with P. aeruginosa GIM 1.551 (3.0 × 10^8 CFU/mL, 60 μL). In the S. aureus ATCC 25923 model, 60 mice were divided into six groups of 10 members. The mice with no infection and treatment was used as a blank control, those directly injected with PBS (20 μL) as the negative control group, those injected with benzylpenicillin potassium (20 μL, 1 μg/μL) as the positive control group, and the remaining three groups as the treatment groups injected with Myr-36PW (20 μL, 1 μg/μL), PMAP-36PW (20 μL, 1 μg/μL), and PMAP-36 (20 μL, 1 μg/μL). The procedure in P. aeruginosa GIM 1.551 model is the same as that in S. aureus ATCC 25923 model, except for the use of ampicillin sodium as a positive control. Treatment once a day for 3 days was initiated when the mice developed prominent pustules on their backs. A day after the treatment, the size of the abscess was observed, and its tissues were excised, homogenized, and serially diluted. Bacteria CFU counts were calculated.
Figure 10 Treatment efficacy of subcutaneous abscess by Myr-36PW in vivo. Mice were injected with S. aureus ATCC 25923 or P. aeruginosa GIM 1.551 to develop a subcutaneous abscess before treatment. (A) Changes in the abscess area of mice after 3 days treatment. (B,C) Quantitative analysis of bacterial CFU in abscess area that received 3 days treatment under various experimental conditions. The number of CFU in each treatment group was normalized by using the CFU of the experimental group divided by the CFU of the PBS group (100%). BP is benzylpenicillin potassium, AS is ampicillin sodium. Data represent the mean ± SD of five individual experiments. *P < 0.05 and **P < 0.01, compared with PBS. ^#P < 0.05 and ^##P < 0.01, compared with PMAP-36PW.

[2] = system: S. aureus ATCC 25923; assay: Inhibition zone assay (disk diffusion); format: cell-based, Staphylococcus aureus; set-up: key: +, means the peptide has antibacterial activity; settings: disk 10 μg peptide, 18 h at 37°C, * P < 0.05, ** P < 0.01 vs PMAP-36PW
Description: (§1) The inhibition zone assay was performed through the disk diffusion to evaluate the antimicrobial activity of Myr-36PW in vitro (Dunne et al., [2017]). The four above-mentioned bacterial strains were used as experimental strains, with L. monocytogenes CICC 21634 cultured in BHI medium, and P. aeruginosa GIM 1.551 cultured in TSB medium. The bacterial cells were cultured for 12 h at 37°C in the appropriate medium, and the bacterial cell suspension was spread on LB agar. The disks containing 10 μg of peptides (1 μg/μL) were attached to the solid medium and incubated at 37°C for 18 h. Finally the diameter of the inhibition zone was measured.

[3] = system: P. aeruginosa GIM 1.551; format: cell-based, Pseudomonas aeruginosa; settings: GIM 1.551, 1 h
Description: The effects of abiotic factors on the antibacterial activity of Myr-36PW were investigated by MIC assay (Xi et al., [2013]; Zhong et al., [2019]). S. aureus ATCC 25923 and P. aeruginosa GIM 1.551 overnight cultures were diluted to 1 × 10^6 CFU/mL, and the MICs of peptides in MHB with different concentration of physiological salts (150 mM NaCL, 2 mM CaCL2) were determined. And after the peptides incubated in 10% mice serum for 1 h at 37°C, MICs of peptides against S. aureus ATCC 25923 and P. aeruginosa GIM 1.551 were determined. The MICs in MHB in the absence of physiological salts and serum were used as the control group.
Salt and serum stability in vitro were indicated by MIC assay. The concentrations of NaCl and CaCl2 were physiological concentration. 10% mice serum was inactivated by heat treatment for 15 min at 60 ℃。The control group was measured in the absence of physiological salts or serum in MHB.

[4] = system: L. monocytogenes CICC 21634; assay: Inhibition zone assay (disk diffusion); format: cell-based, Listeria monocytogenes; set-up: key: +, means the peptide has antibacterial activity; settings: disk 10 μg peptide, 18 h at 37°C, * P < 0.05, ** P < 0.01 vs PMAP-36PW
Description: as §1

[5] = system: S. aureus ATCC 25923, S. typhimurium SL 1344, and P. aeruginosa GIM 1.551; assay: Biofilm eradication assay (crystal violet and colony count); format: cell-based; settings: 128 μg/mL, n = 5
Description: The biofilm-eradicating ability of Myr-36PW was determined against S. aureus ATCC 25923, S. typhimurium SL 1344, and P. aeruginosa GIM 1.551 (Chen et al., [2018]; de Breij et al., [2018]). In brief, 200 μL of bacterial dilution (1 × 10^6 CFU/mL) was added into a 96-well plate and incubated for 24 h at 37°C to form a biofilm, which was washed three times with PBS. Subsequently, 200 μL of peptides at 128 μg/mL were added to the wells. After incubation for 1 h at 37°C, the OD of each well was measured at 620 nm by crystal violet staining. The wells were gently washed three times with PBS after 1 h incubation to evaluate the killing effect of Myr-36PW against bacteria in the biofilm. Afterward, 100 μL of suspension was serially diluted and spread on LB agar plates, and bacterial colony was measured.
Figure 6 Biofilm inhibition and eradication of Myr-36PW. (A–C) Inhibition of biofilm formation by Myr-36PW. (D) Eradication of preformed biofilm by Myr-36PW. (E) Killing effect of Myr-36PW against biofilm bacteria. Inhibition rate % = [1 – OD620 nm(peptides)/OD620 nm(bacteria)] × 100%. Biofilm mass % = OD620 nm(peptides)/OD620 nm(control) × 100%. The control group was bacterial culture without peptides. Data represent the mean ± SD (n = 5).

Compound	Abscess area [1]	Bacterial CFU in abscess area [1]	In vitro antibacterial activity (disk diffusion) [2]	MICs, CaCl2 [3]	MICs, Control [3]	MICs, NaCl [3]	MICs, Serum [3]	In vitro antibacterial activity (disk diffusion) [4]	Eradication of preformed biofilm ([5]; 1 h at 37°C on 24 h biofilm, crystal violet OD 620 nm)	Killing effect against biofilm bacteria ([5]; 1 h at 37°C, colony count)
CC1(C)S[C@@H]2[C@H](NC(=O)Cc3ccccc3)C(=O)N2[C@H]1C(=O)O [Benzylpenicillin potassium]	significantly reduced the abscess area and effectively suppressed its growth	lower than that in PBS group (P < 0.01)	–	–	–	–	–	–	–	–
CCCCCCCCCCCCCC(=O)NCC(=O)NCC(=O)N[C@@H](CCCNC(=N)N)C(=O)N[C@@H](Cc1ccccc1)C(=O)N[C@@H](CCCNC(=N)N)C(=O)N[C@@H](CCCNC(=N)N)C(=O)N[C@@H](CC(C)C)C(=O)N[C@@H](CCCNC(=N)N)C(=O)N[C@@H](CCCCN)C(=O)N[C@@H](CCCCN)C(=O)N[C@H](C(=O)N[C@@H](CCCNC(=N)N)C(=O)N[C@@H](CCCCN)C(=O)N[C@@H](CCCNC(=N)N)C(=O)N[C@@H](CC(C)C)C(=O)N[C@@H](CCCCN)C(=O)N[C@@H](CCCCN)C(=O)N[C@H](C(=O)NCC(=O)N[C@@H](CCCCN)C(=O)N[C@H](C(=O)N[C@@H](CC(C)C)C(=O)N[C@@H](CCCCN)C(=O)N[C@@H](Cc1c[nH]c2ccccc12)C(=O)N[C@H](C(=O)N[C@@H](Cc1c[nH]c2ccccc12)C(=O)N[C@@H](Cc1c[nH]c2ccccc12)C(=O)N[C@H](C(=O)N[C@H](C(=O)NCC(=O)N[C@@H](CO)C(=O)N[C@H](C(=O)N1CCC[C@H]1C(=O)N[C@@H](CC(C)C)C(=O)NCC(=O)N[C@@H](CS)C(=O)NCC(=O)O)[C@@H](C)CC)C(C)C)[C@@H](C)CC)[C@@H](C)CC)C(C)C)[C@@H](C)CC)[C@@H](C)O [Myr-36PW] (Myristoyl-GGRFRRLRKKTRKRLKKIGKVLKWIWWIVGSIPLGCG-OH; C-terminus assumed)	significantly reduced the abscess area and effectively suppressed its growth	lower than that in PBS group (P < 0.01)	+**	0.5 µg/mL	0.25 µg/mL	0.25 µg/mL	0.5 µg/mL	+**	only eradicated the preformed biofilm in Gram-negative bacteria	bacterial killing effect except against S. aureus ATCC 25923
